US20190375764A1, “SALTS OF A HETEROCYCLIC COMPOUND AND CRYSTALLINE FORMS, PROCESSES FOR PREPARING, THERAPEUTIC USES, AND PHARMACEUTICAL COMPOSITIONS THEREOF” (Sunovion Pharmaceuticals Inc., priority 2018, published 2019)
Entries after “also recorded” stand apart in the source; their conditions may differ. One block for each compound: values may come before it.

Assays:
Assay type in all cases: physicochemical
[1] = Dynamic vapor sorption (DVS) moisture sorption isotherm; details: for hygroscopicity: result of DVS, in words
Method: DVS moisture sorption isotherms were generated using a Hiden Analytical IGA-sorp moisture sorption analyzer. Samples were run as received without pre-analysis drying. Each sample was equilibrated between about 30 and 120 minutes at each relative humidity (RH) step. Temperature was fixed at about 25° C. and the relative humidity steps (0 to 95% RH) were in 5-10% increments. Sample sizes ranged from 3 to 30 mg. After DVS measurement, XRPD was measured in order to check the solid form. Dynamic Vapor sorption (DVS) moisture sorption isotherms were generated using IGA-sorp moisture sorption analyzer (Hiden Analytical). Sample measurements were run without drying before analyses. XRPD was measured in order to check any changes of the solid form after the moisture sorption/desorption. The measurement condition is shown below: • Time at each RH steps: From 30 to 120 minutes • Relative humidity steps: 5 or 10% steps • Temperature: 25° C.

[2] = Temperature controlled XRPD (crystal form on heating); details: heating up to melting
Method: Temperature controlled XRPD was measured by the X'pert-MPD with an Anton Paar TCU 100 Temperature Control Unit. Sample was measured from 30° C. to 250° C. or 270° C. with 10° C. increments. Measurement conditions were as follows: range: 4-30°, step: 0.017°, time per step: 100 s.
FT-Raman, XRPD, DSC, TGA, and DVS instruments and techniques are similar to those in Example 3. Temperature controlled XRPD was measured by X'pert-Pro MPD (Spectris) with TCU 100 Temperature Control Unit (Anton Paar). The temperature of the sampling stage was increased step by step as programmed and XRPD patterns of sample were measured at each step. The measurement condition is shown below: • Range angle: From 4 to 30° • Step size: 0.017° • Time per step: 100 s

[3] = Crystal form stability on humidity, storage and drying (XRPD / FT-Raman); details: for crystal form before and after DVS measurement (XRPD): moisture sorption/desorption
Method: DVS moisture sorption isotherms were generated using a Hiden Analytical IGA-sorp moisture sorption analyzer. Samples were run as received without pre-analysis drying. Each sample was equilibrated between about 30 and 120 minutes at each relative humidity (RH) step. Temperature was fixed at about 25° C. and the relative humidity steps (0 to 95% RH) were in 5-10% increments. Sample sizes ranged from 3 to 30 mg. After DVS measurement, XRPD was measured in order to check the solid form. FT-Raman analyses were performed by using MultiRAM (Bruker Optics). Each suspension or dry powder sample was measured from out of glass vial. The measurement condition is shown below: • Excitation wavelength: 1064 nm • Laser power: 500 mW • Wavenumber: 4 cm^−1 • Sample scan: 128 times X-ray Powder Diffraction (XRPD) spectra were obtained by X'pert Pro MPD (Spectris). X-rays was generated with Cu Kα radiation. The powder samples were put on the reflection free sample plate. The XRPD patterns were analyzed by HighScorePlus. The measurement condition is shown below: • Range angle: From 4 to 30°, to 40° and to 65° (2θ) • Step size: 0.017° • Time per step: 100 s Dynamic Vapor sorption (DVS) moisture sorption isotherms were generated using IGA-sorp moisture sorption analyzer (Hiden Analytical). Sample measurements were run without drying before analyses. XRPD was measured in order to check any changes of the solid form after the moisture sorption/desorption. The measurement condition is shown below: • Time at each RH steps: From 30 to 120 minutes • Relative humidity steps: 5 or 10% steps • Temperature: 25° C.

[4] = humidity increased from 0% RH to 95% RH

SMILES: CNC[C@H]1OCCn2nc3ccccc3c21.O=S(=O)(O)c1ccccc1 [Form BA, (R)-1-(3,4-dihydro-1H-[1,4]oxazino[4,3-b]indazol-1-yl)-N-methylmethanamine benzenesulfonate]
weight gain (DVS) ([1]; at 90% RH, another batch of Form BA): about 1%
weight gain (DVS) ([1]; at 90% RH, one batch of Form BA): about 2%
weight gain (DVS) ([1]; at 95% RH): about 2%
weight gain (DVS) ([1]; at 95% RH, another batch of Form BA): about 2%
weight gain (DVS) ([1]; at 95% RH, one batch of Form BA): about 8%
hygroscopicity ([1]; benzenesulfonate): less hygroscopicity; also recorded: good hygroscopicity behavior
hygroscopicity ([1]; listed as besylate, benzenesulfonate): less hygroscopicity
transformation of crystal form, temperature controlled XRPD [2]: not transformed to any other polymorph

SMILES: CNC[C@H]1OCCn2nc3ccccc3c21.Cl [Form HA, (R)-1-(3,4-dihydro-1H-[1,4]oxazino[4,3-b]indazol-1-yl)-N-methylmethanamine hydrochloride]
weight gain (DVS) ([1]; at 95% RH): over 100%
hygroscopicity ([1]; hydrochloride): Highly hygroscopic
crystal form before and after DVS measurement (XRPD) ([3]; hydrochloride): transformed to Form HC mixed with an unidentified polymorph

SMILES: CNC[C@H]1OCCn2nc3ccccc3c21.Cl [Form HB, (R)-1-(3,4-dihydro-1H-[1,4]oxazino[4,3-b]indazol-1-yl)-N-methylmethanamine hydrochloride]
crystal form stability on isolation ([3]; observed only in a suspension state, filtrated and dried, hydrochloride): transformed to Form HC or Form HA; also recorded: Not stable

SMILES: CNC[C@H]1OCCn2nc3ccccc3c21.Cc1ccc(S(=O)(=O)O)cc1 [Form TA, (R)-1-(3,4-dihydro-1H-[1,4]oxazino[4,3-b]indazol-1-yl)-N-methylmethanamine tosylate]
weight gain (DVS) ([1]; at 95% RH): about 1%
weight gain (DVS) [1, 4]: ~1%
hygroscopicity ([1]; listed as Tosylate, tosylate): less hygroscopicity
hygroscopicity ([1]; listed as tosylate, tosylate): less hygroscopicity
hygroscopicity ([1]; tosylate): less hygroscopicity; also recorded: good hygroscopicity behavior; also recorded: non-hygroscopicity
transformation of crystal form, temperature controlled XRPD ([2]; tosylate): not transformed to any other polymorph; also recorded: stable in terms of the crystal form and not transformed to another form until the melting point
crystal form before and after DVS measurement (XRPD) [3]: no changes of the crystal form

Continued, values first:

transformation of crystal form, temperature controlled XRPD [2]: not transformed to any other polymorph
SMILES: CNC[C@H]1OCCn2nc3ccccc3c21.O=C(O)/C=C/C(=O)O [Form FA, (R)-1-(3,4-dihydro-1H-[1,4]oxazino[4,3-b]indazol-1-yl)-N-methylmethanamine fumarate]

weight gain (DVS) ([1]; at over 75% RH): about 5%
crystal form after storage under humidity ([3]; 75% RH overnight (NaCl water suspension)): Form FA was observed
crystal form under dry condition or heated ([3]; dry condition or heated, quickly transformed back to hydrous form in the air): anhydrous form can be obtained
SMILES: CNC[C@H]1OCCn2nc3ccccc3c21.O=C(O)/C=C/C(=O)O [Form FB, (R)-1-(3,4-dihydro-1H-[1,4]oxazino[4,3-b]indazol-1-yl)-N-methylmethanamine fumarate]

weight gain (DVS) ([1]; between 60% RH and 70% RH (Form HC transformed to Form HD)): 6.5%
weight gain (DVS) [1, 4]: 9.3%
hygroscopicity ([1]; hydrochloride): hygroscopic
crystal form after storage at high-humid condition (Raman) ([3]; 75% RH for 1 day, saturated sodium chloride water): transformed to Form HD
crystal form transformation ([3]; humidity level of more than 70% RH): Transformed to Form D
crystal form before and after DVS measurement (XRPD) ([3]; hydrochloride): basically stable
SMILES: CNC[C@H]1OCCn2nc3ccccc3c21.Cl [Form HC, (R)-1-(3,4-dihydro-1H-[1,4]oxazino[4,3-b]indazol-1-yl)-N-methylmethanamine hydrochloride]

crystal form transformation ([3]; at room temperature): Transformed to Form C
SMILES: CNC[C@H]1OCCn2nc3ccccc3c21.Cl [Form HD, (R)-1-(3,4-dihydro-1H-[1,4]oxazino[4,3-b]indazol-1-yl)-N-methylmethanamine hydrochloride]

hygroscopicity [1]: no hygroscopicity
SMILES: CNC[C@H]1OCCn2nc3ccccc3c21.O=C(O)/C=C/C(=O)O [fumarate, (R)-1-(3,4-dihydro-1H-[1,4]oxazino[4,3-b]indazol-1-yl)-N-methylmethanamine fumarate]
